From patent US4524067A, “Soybean saponins, and a method of isolating the same” (Osaka Chemical Laboratory Co., Ltd., priority 1979, dated 1985)
Where two headings read alike, the source gives them in different places.

Columns and labels:
[1] = system: lipid peroxides in the heart; test: Inhibition of formation of lipid peroxides in the heart of Adreamycin-treated mice; format: in vivo, mice (COF male); conditions: for Lipid peroxide, heart / Rate of inhibition, heart: n = 5
Experimental: (§1) It is widely known that Adreamycin, which is an oncostatic, inhibits the synthesis of DNA by combining therewith, and the metabolism of lipids in the heart to cause deposition of lipid peroxides therein, leading to miocardosis.
(§2) (1) The tests were conducted with groups of five COF male mice, five week old, weighing 20 to 25 g each. 15 mg/kg of Adreamycin (product of Kyowa Hakko Kogyo, Japan) were intraperitoneally injected into each mouse (0.15 ml of the medicine per 10 g of mouse weight).
(§3) The administration of each of the medicines to be tested as shown in Table 1 below was started one day prior to the administration of Adreamycin, and continued intraperitoneally for five days at a rate of 0.10 ml per 10 g of mouse weight. All the medicines tested were suspended or emulsified (only vitamin E) in a 0.9% physiological solution of sodium chloride, or a 0.9% physiological solution of sodium chloride containing 1% of Tween 80 immediately before they were applied. All the medicines tested were administered at noon every day, and Adreamycin was given three hours after the administration of the medicines tested. The saponin component of this invention was given in the amount of 1,000 mg/kg, 500 mg/kg, 125 mg/kg, 50 mg/kg, 25 mg/kg and 12.5 mg/kg, vitamin E in the amount of 1,000 mg/kg and 250 mg/kg, and vitamin B2 in the amount of 1,000 mg/kg, while a 0.9% physiological solution of sodium chloride was given to the mice of the control group.
(§4) (2) On the sixth day, each mouse was killed by dislocation of the cervical vertebrae, and its heart and liver were picked out immediately. After their wet weights were measured, a 2% homogenate was prepared with a 0.9% physiological solution of sodium chloride by a Potter homogenizer made of Teflon while it was being cooled with ice.
(§5) 0.5 ml of a 3% aqueous solution of sodium lauryl sulfate was added into 0.2 ml of the aforementioned 2% homogenate, and they were mixed together by shaking for 30 seconds. Then, 1.5 ml of an acetic acid buffer solution having a pH value of 3.6, and 1.5 ml of a 0.8% solution of thiobarbituric acid were added thereinto, followed by addition of distilled water to make a total of 4.0 ml. After the resulting solution was shaked vigorously for 30 seconds, it was heated at 95° C. for an hour in an oil bath, and cooled with flowing water for five minutes. Then, 1.0 ml of 0.2N hydrochloric acid and 5.0 ml of a mixed solution of n-butanol and pyridine (15:1) were added into the solution, and after it was shaked violently, it was subjected to centrifugal separation at 3,000 rpm for 15 minutes, whereby the top n-butanol layer was separated, and its fluorescence spectrum was measured by a spectrophotofluorometer (Ex 515 nm and Em 553 nm). […] The quantity of lipid peroxides was obtained by applying the working curve to the values as actually measured.
(§6) The rate of inhibition of the formation of lipid peroxides was obtained in accordance with the following equation to compare the effects of the various medicines tested, and the quantities thereof employed, as shown in Table 1: [formula] wherein A: the concentration of lipid peroxides in the group of mice to which no Adreamycin had been given;
(§7) D: the concentration of lipid peroxides in the groups of mice to which both Adreamycin and the medicines to be tested had been administered.
(§8) Note: The rate of inhibition by each dosage was calculated by comparison with the values shown for the respective test numbers in the control group (i.e., applying the values of C shown for the control group).

Solubility = format: physicochemical
[2] = Antioxidizing action for salad oil (lipid peroxide, Yagi's method); conditions: 180° C. for 40 min.
Experimental: Salad oil: Product of Nisshin Seiyu Co., Ltd., Japan.
Test oils were prepared by using various kinds of saponin components which were added into the salad oil in the amounts of 1 mg/ml and 0.1 mg/ml. These test oils and a control oil containing no saponin component were heated at 180° C. for 40 minutes, while oxygen was being blown thereinto. After they were cooled, the quantities of the lipid peroxides formed in the oils were determined by the Yagi's method [K. Yagi, Biochemie.

[3] = pH / acidity of aqueous solution; format: physicochemical
[4] = system: lipid peroxides in the liver; test: Inhibition of formation of lipid peroxides in the liver of Adreamycin-treated mice; format: in vivo, mice (COF male); conditions: n = 5
Experimental: as §1, §2, §3, §4, §5, §6, §7, §8

[5] = system: formation of lipid peroxides; conditions: prior art statement, cited from earlier work
[6] = prior art statement; cited from earlier work
[7] = prior art statement; cited from earlier work; remark: listed apart in the source

## COc1cccc2c1C(=O)c1c(O)c3c(c(O)c1C2=O)C[C@@](O)(C(=O)CO)C[C@@H]3O[C@H]1C[C@H](N)[C@H](O)[C@H](C)O1 [Adreamycin]
[1]; 15 mg/kg i.p., heart and liver, mice
  Effect of Adreamycin on lipid peroxides: increases the lipid peroxides in the heart and liver

## CC1(C)C[C@H]2C3=CC[C@@H]4[C@@]5(C)CC[C@H](O[C@@H]6O[C@H](C(=O)O)[C@@H](O)[C@H](O)[C@H]6O[C@@H]6O[C@H](CO)[C@H](O)[C@H](O)[C@H]6O[C@@H]6O[C@H](CO)[C@@H](O)[C@H](O)[C@H]6O)[C@](C)(CO)[C@@H]5CC[C@@]4(C)[C@]3(C)CC[C@@]2(C)[C@H](O[C@@H]2OC[C@H](O)[C@H](O[C@@H]3O[C@H](CO)[C@@H](O)[C@H](O)[C@H]3O)[C@H]2O)[C@@H]1O [Soyasaponin A1, 3-O-[β-D-glucopyranosyl(1→2)-β-D-galactopyranosyl-(1→2)-β-D-glucuronopyranosyl]-22-O-[β-D-glucopyranosyl(1→3)-α-L-arabinopyranosyl]-soyasapogenol A]
Solubility
  Solubility: easily soluble in methanol, soluble in water, pyridine, dimethyl sulfoxide and ethanol, and insoluble in acetone, chloroform and ether
[2]; 0.1 mg/ml
  Quantity of lipid peroxide: 22.5 nmol/mL
  Rate of inhibition of increase in lipid peroxide: 74.8%
[2]; 1 mg/ml
  Quantity of lipid peroxide: 13.8 nmol/mL
  Rate of inhibition of increase in lipid peroxide: 91.5%
[3]; 10 mg in 1 ml of water
  pH value of aqueous solution: 6

## CC1(C)C[C@H]2C3=CC[C@@H]4[C@@]5(C)CC[C@H](O[C@@H]6O[C@H](C(=O)O)[C@@H](O)[C@H](O)[C@H]6O[C@@H]6O[C@H](CO)[C@H](O)[C@H](O)[C@H]6O)[C@](C)(CO)[C@@H]5CC[C@@]4(C)[C@]3(C)CC[C@@]2(C)[C@H](O[C@@H]2OC[C@H](O)[C@H](O[C@@H]3O[C@H](CO)[C@@H](O)[C@H](O)[C@H]3O)[C@H]2O)[C@@H]1O [Soyasaponin A2, 3-O-[β-D-galactopyranosyl-(1→2)-β-D-glucuronopyranosyl]-22-O-[β-D-glucopyranosyl (1→3)-α-L-arabinopyranosyl]-soyasapogenol A]
Solubility
  Solubility: easily soluble in methanol, soluble in water, pyridine, dimethyl sulfoxide and ethanol, and insoluble in acetone, chloroform and ether
[2]; 0.1 mg/ml
  Quantity of lipid peroxide: 60.0 nmol/mL
  Rate of inhibition of increase in lipid peroxide: 2.5%
[2]; 1 mg/ml
  Quantity of lipid peroxide: 38.8 nmol/mL
  Rate of inhibition of increase in lipid peroxide: 43.4%
[3]; 5 mg in 1 ml of water
  pH value of aqueous solution: 6

## C[C@@H]1O[C@@H](O[C@H]2[C@H](O[C@H]3[C@H](O[C@H]4CC[C@@]5(C)[C@@H](CC[C@]6(C)[C@@H]5CC=C5[C@@H]7CC(C)(C)C[C@@H](O)[C@]7(C)CC[C@]56C)[C@@]4(C)CO)O[C@H](C(=O)O)[C@@H](O)[C@@H]3O)O[C@H](CO)[C@H](O)[C@@H]2O)[C@H](O)[C@H](O)[C@H]1O [Soyasaponin I, 3-O-[α-L-rhamnopyranosyl(1→2)-β-D-galactopyranosyl(1→2)-β-D-glucuronopyranosyl]-soyasapogenol B]
[2]; 0.1 mg/ml
  Quantity of lipid peroxide: 45.6 nmol/mL
  Rate of inhibition of increase in lipid peroxide: 30.3%
[2]; 1 mg/ml
  Quantity of lipid peroxide: 10.6 nmol/mL
  Rate of inhibition of increase in lipid peroxide: 97.7%

## C[C@@H]1O[C@@H](O[C@H]2[C@H](O[C@H]3[C@H](O[C@H]4CC[C@@]5(C)[C@@H](CC[C@]6(C)[C@@H]5CC=C5[C@@H]7CC(C)(C)C[C@@H](O)[C@]7(C)CC[C@]56C)[C@@]4(C)CO)O[C@H](C(=O)O)[C@@H](O)[C@@H]3O)OC[C@H](O)[C@@H]2O)[C@H](O)[C@H](O)[C@H]1O [Soyasaponin II, 3-O-[α-L-rhamnopyranosyl(1→2)-α-L-arabinopyranosyl(1→2)-β-D-glucuronopyranosyl]-soyasapogenol B]
[2]; 0.1 mg/ml
  Quantity of lipid peroxide: 46.3 nmol/mL
  Rate of inhibition of increase in lipid peroxide: 28.9%
[2]; 1 mg/ml
  Quantity of lipid peroxide: 80.6 nmol/mL
  Rate of inhibition of increase in lipid peroxide: -37.2%

## CC1(C)C[C@@H](O)[C@]2(C)CC[C@]3(C)C(=CC[C@@H]4[C@@]5(C)CC[C@H](O[C@@H]6O[C@H](C(=O)O)[C@@H](O)[C@H](O)[C@H]6O[C@@H]6O[C@H](CO)[C@H](O)[C@H](O)[C@H]6O)[C@](C)(CO)[C@@H]5CC[C@]43C)[C@@H]2C1 [Soyasaponin III, 3-O-[β-D-galactopyranosyl(1→2)-β-D-glucuronopyranosyl]-soyasapogenol B]
[2]; 0.1 mg/ml
  Quantity of lipid peroxide: 45.6 nmol/mL
  Rate of inhibition of increase in lipid peroxide: 30.3%
[2]; 1 mg/ml
  Quantity of lipid peroxide: 8.8 nmol/mL
  Rate of inhibition of increase in lipid peroxide: 101.2%

## Cc1cc2nc3c(=O)[nH]c(=O)nc-3n(C[C@H](O)[C@H](O)[C@H](O)CO)c2cc1C [Vitamin B2, riboflavin]
[4]; 1000 mg/kg i.p., test No. I
  Lipid peroxide, liver: 124.84 ± 10.26 nmol/g
  Rate of inhibition, liver: 21.28
[1]; 1000 mg/kg i.p., test No. I
  Lipid peroxide, heart: 153.61 ± 11.12 nmol/g
  Rate of inhibition, heart: 40.81
[5]; compared with vitamin E
  Power of inhibiting the formation of lipid peroxides: extremely lower power of inhibiting the formation of lipid peroxides than vitamin E

## Cc1c(C)c2c(c(C)c1O)CCC(C)(CCCC(C)CCCC(C)CCCC(C)C)O2 (stereo not drawn) [Vitamin E, α-tocopherol]
[4]; 250 mg/kg i.p., test No. II
  Lipid peroxide, liver: 76.90 ± 8.15 nmol/g
  Rate of inhibition, liver: 94.79
[4]; 1000 mg/kg i.p., test No. I
  Lipid peroxide, liver: 89.27 ± 26.33 nmol/g
  Rate of inhibition, liver: 75.95
[6]
  Solubility: insoluble in water and soluble in oil
[7]
  Storage in the body and side effects: stored in the body for a long period of time, and produces side effects
[1]; 250 mg/kg i.p., test No. II
  Lipid peroxide, heart: 86.34 ± 12.61 nmol/g
  Rate of inhibition, heart: 101.98
[1]; 1000 mg/kg i.p., test No. I
  Lipid peroxide, heart: 106.87 ± 36.40 nmol/g
  Rate of inhibition, heart: 82.61
[5]
  Effectiveness for inhibiting the formation of lipid peroxides: effective agent for inhibiting the formation of lipid peroxides
